Results taken from patent US20220378928A1, “A Camptothecin Drug and Its Antibody Conjugate Thereof” (priority 2020, published 2022).
Read-outs that look alike come from different tables or passages of the source.

Columns and labels:
Assay in all cases: Camptothecin drug cellular activity test (MTS cell proliferation)
Type in all cases: cell-based, human
U87-MG = conditions: read-out: Cell Viability, U87-MG
Procedure: (§1) The cytotoxic activity of camptothecin drugs was determined by the following experimental process: Camptothecin drugs were added to cell culture media that grows human tumors cells that express A431, Fadu, Bxpc-3 (EGFR-positive cells) and U87-MG, SW620 (negative control cells). Cell survival rates were measured after the cells were cultured for 72 hours. Cell-based in vitro experiments are used to determine cell survival rate, cytotoxicity, and programmed cell death induced by the camptothecin drug of the present application.
(§2) The in vitro efficacy of the camptothecin drugs was determined by cell proliferation test. CellTiter 96® Aqueous One Solution Cell Proliferation Assay is commercially available (Promega Corp., Madison, Wis.). CellTiter 96® AQueous One Solution Cell Proliferation Assay(a) is a colorimetric method to detect the number of living cells in cell proliferation and cytotoxicity experiments. This reagent contains a novel tetrazolium compound [3-(4, 5-dimethylthiazol-2-yl)-5-(3-carboxymethoxyphenyl)-2-(4-sulfophenyl)-2H-tetrazolium, inner salt; MTS] and an electronic coupling agent (phenazine ethosulfate; PES). PES has enhanced chemical stability, which allows it to be mixed with MTS to form a stable solution. This convenient “single solution” mode is an improvement on the basis of the first generation CellTiter 96*AQueous Assay. The electronic coupling agent PMS and MTS solution used in the CellTiter 96*AQueous Assay are provided separately. MTS (Owen's reagent) is reduced by cell organisms into a colored formazan product (Illustration 1), which can be directly dissolved in the culture medium.
(§3) The conversion in all likelihood is completed under the action of NADPH or NADH produced by dehydrogenases in metabolically active cells. When testing, just add a small amount of CellTiter 96® AQueous One Solution Reagent directly to the culture plate well, incubate for 1-4 hours, and then read the absorbance value at 490 nm with a microplate reader.
(§4) The amount of formazan detected at 490 nm is directly proportional to the number of viable cells in culture. Since the formazan product of MTS is soluble in tissue culture medium, CellTiter 96® AQueous One Solution Assay has fewer steps than MTT or INT methods.
(§5) In the present application, A431, Fadu, Bxpc-3 (EGFR positive expressing cells) and U87-MG, SW620 (negative control cells) are used as the research system for in vitro drug efficacy detection. In a 96-well plate, use an appropriate cell density for plating, and after 24 hours, add camptothecin. After 24 hours, dilute the camptothecin drug with the test medium (1 uM start, 5-fold dilution, 9 concentrations, add test medium in the tenth column as a blank control), and add the diluted camptothecin drug to the corresponding cell wells. The cell wells were then shaken with a microplate shaker (model: MX100-4A) for 3 minutes at a shaking speed of 550 rpm/min. After shaking, they were placed in a carbon dioxide incubator and incubated for 3 days. After 3 days, add 20 uL MTS (Promega, G3581) to each well for 2 hours, and the microplate reader (Molecular Device, model: SpectraMAX190) reads at […]. By detecting the activity of dehydrogenase in mitochondria, the inhibitory effect of camptothecin drugs on cell proliferation was evaluated.

A431 = conditions: read-out: Cell Viability, A431
Procedure: as §1, §2, §3, §4, §5

BXPC-3 = conditions: read-out: Cell Viability, BXPC-3
Procedure: as §1, §2, §3, §4, §5

SW620 = conditions: read-out: Cell Viability, SW620
Procedure: as §1, §2, §3, §4, §5

Fadu = conditions: read-out: Cell Viability, Fadu
Procedure: as §1, §2, §3, §4, §5

[1] = Homo sapiens, U-87 MG, 72 h, U87-MG, negative control cells, 3 days incubation, MTS
[2] = Homo sapiens, A-431, 72 h, A431, EGFR-positive cells, 3 days incubation, MTS
[3] = Homo sapiens, 72 h, BXPC-3, EGFR-positive cells, 3 days incubation, MTS
[4] = Homo sapiens, SW-620, 72 h, SW620, negative control cells, 3 days incubation, MTS
[5] = Homo sapiens, 72 h, Fadu, EGFR-positive cells, 3 days incubation, MTS

## CC[C@H](O)C(=O)N[C@H]1CCc2c(C)c(F)cc3nc4c(c1c23)Cn1c-4cc2c(c1=O)COC(=O)[C@]2(O)CC [Compound 31]
U87-MG; Homo sapiens, U-87 MG, 72 h
  IC50: 10.8 nM
A431; Homo sapiens, A-431, 72 h
  IC50: 14.8 nM
BXPC-3; Homo sapiens, BXPC-3, 72 h
  IC50: 55.4 nM
SW620; Homo sapiens, SW-620, 72 h
  IC50: 17.5 nM
Fadu; Homo sapiens, FaDu, 72 h
  IC50: 17.5 nM

## CC[C@@]1(O)C(=O)OCc2c1cc1n(c2=O)Cc2c-1nc1cc(F)c(C)c3c1c2[C@@H](NC(=O)[C@H](C)O)CC3 [Compound 2]
U87-MG; [1]
  IC50: 7.4 nM
A431; [2]
  IC50: 40.9 nM
BXPC-3; [3]
  IC50: 38.8 nM
SW620; [4]
  IC50: 10.4 nM
Fadu; [5]
  IC50: 11.1 nM

## CC[C@@]1(O)C(=O)OCc2c1cc1n(c2=O)Cc2c-1nc1cc(F)c(C)c3c1c2[C@@H](NC(=O)[C@H](O)c1cc(F)cc(F)c1)CC3 [Compound 29]
U87-MG; Homo sapiens, U-87 MG, 72 h
  IC50: 23.6 nM
A431; Homo sapiens, A-431, 72 h
  IC50: 19.6 nM
BXPC-3; Homo sapiens, BXPC-3, 72 h
  IC50: 90.1 nM
SW620; Homo sapiens, SW-620, 72 h
  IC50: 2.15 nM
Fadu; Homo sapiens, FaDu, 72 h
  IC50: 41.3 nM

## CC[C@@]1(O)C(=O)OCc2c1cc1n(c2=O)Cc2c-1nc1cc(F)c(C)c3c1c2[C@@H](NC(=O)C(O)c1ccccc1)CC3 (stereo partly drawn) [Compound 28]
U87-MG; Homo sapiens, U-87 MG, 72 h
  IC50: 18.3 nM
A431; Homo sapiens, A-431, 72 h
  IC50: 5.12 nM
BXPC-3; Homo sapiens, BXPC-3, 72 h
  IC50: 81 nM
SW620; Homo sapiens, SW-620, 72 h
  IC50: 11.9 nM
Fadu; Homo sapiens, FaDu, 72 h
  IC50: 14.2 nM

## CC[C@@]1(O)C(=O)OCc2c1cc1n(c2=O)Cc2c-1nc1cc(F)c(C)c3c1c2[C@H](NC(=O)[C@H](O)C(F)(F)F)CC3 [Compound 12]
U87-MG; [1]
  IC50: 0.06 nM
A431; [2]
  IC50: 15.5 nM
BXPC-3; [3]
  IC50: 1.6 nM
SW620; [4]
  IC50: 0.06 nM
Fadu; [5]
  IC50: 0.002 nM

## CC[C@@]1(O)C(=O)OCc2c1cc1n(c2=O)Cc2c-1nc1cc(F)c(C)c3c1c2[C@@H](NC(=O)C1(O)CCCC1)CC3 [Compound 25]
U87-MG; Homo sapiens, U-87 MG, 72 h
  IC50: 10.4 nM
A431; Homo sapiens, A-431, 72 h
  IC50: 11.7 nM
BXPC-3; Homo sapiens, BXPC-3, 72 h
  IC50: 15.8 nM
SW620; Homo sapiens, SW-620, 72 h
  IC50: 1.5 nM
Fadu; Homo sapiens, FaDu, 72 h
  IC50: 41 nM

## CC[C@@]1(O)C(=O)OCc2c1cc1n(c2=O)Cc2c-1nc1cc(F)c(C)c3c1c2[C@@H](NC(=O)[C@H](O)c1ccc2c(c1)OCO2)CC3 [Compound 30]
U87-MG; Homo sapiens, U-87 MG, 72 h
  IC50: 29.9 nM
A431; Homo sapiens, A-431, 72 h
  IC50: 19.9 nM
BXPC-3; Homo sapiens, BXPC-3, 72 h
  IC50: 34.2 nM
SW620; Homo sapiens, SW-620, 72 h
  IC50: 2.25 nM
Fadu; Homo sapiens, FaDu, 72 h
  IC50: 19.2 nM

## CC[C@@]1(O)C(=O)OCc2c1cc1n(c2=O)Cc2c-1nc1cc(F)c(C)c3c1c2[C@H](NC(=O)[C@@H](O)C(F)(F)F)CC3 [Compound 13]
U87-MG; [1]
  IC50: 0.32 to 1.6 nM
A431; [2]
  IC50: 6.37 nM
BXPC-3; [3]
  IC50: 40 nM
SW620; [4]
  IC50: 1.06 nM
Fadu; [5]
  IC50: 0.06 nM

## CCc1c2c(nc3ccc(O)cc13)-c1cc3c(c(=O)n1C2)COC(=O)[C@]3(O)CC [SN38, reference compound]
U87-MG; U87-MG, negative control cells, 3 days incubation, MTS
  IC50: 15.7 nM
A431; A431, EGFR-positive cells, 3 days incubation, MTS
  IC50: 13.6 nM
BXPC-3; BXPC-3, EGFR-positive cells, 3 days incubation, MTS
  IC50: 120 nM
SW620; SW620, negative control cells, 3 days incubation, MTS
  IC50: 3.28 nM
Fadu; Fadu, EGFR-positive cells, 3 days incubation, MTS
  IC50: 42.1 nM
